From ChEMBL document CHEMBL1124976, “An initial three-component pharmacophore for specific serotonin-3 receptor ligands” (J Med Chem, 1990)

Columns and labels:
[1] = biological target: T1, 5-hydroxytryptamine receptor 3B (Mus musculus, UniProt Q9JHJ5); test: In vitro binding affinity for the 5-hydroxytryptamine 3 receptor was determined with NG-108-15 mouse neuroblastoma-glioma cells
T1 sequence (Q9JHJ5 whole entry): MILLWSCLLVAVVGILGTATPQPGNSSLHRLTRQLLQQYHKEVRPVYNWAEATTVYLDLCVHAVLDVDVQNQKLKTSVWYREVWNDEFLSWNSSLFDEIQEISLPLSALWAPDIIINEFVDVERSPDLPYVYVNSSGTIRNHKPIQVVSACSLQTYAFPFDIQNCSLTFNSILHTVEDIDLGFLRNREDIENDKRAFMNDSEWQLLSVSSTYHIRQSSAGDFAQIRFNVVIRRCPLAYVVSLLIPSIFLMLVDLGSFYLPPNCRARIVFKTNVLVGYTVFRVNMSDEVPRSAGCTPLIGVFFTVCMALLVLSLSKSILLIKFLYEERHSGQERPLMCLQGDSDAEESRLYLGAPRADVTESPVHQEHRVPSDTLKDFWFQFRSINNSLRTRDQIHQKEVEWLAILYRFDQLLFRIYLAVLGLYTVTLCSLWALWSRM

[2] = biological target: Serotonin 3 (5-HT3) receptor (Rattus norvegicus) (UniProt P35563+Q9JJ16); test: Tested for inhibition of Bezold-Jarisch (B-J) reflex mediated by 5-hydroxytryptamine 3 receptor in rats after intravenous administration (2.0 ug/kg); format: functional, organism-based
[3] = biological target: 5-hydroxytryptamine receptor 3A (Mus musculus) (UniProt P23979); test: In vitro binding affinity for the 5-hydroxytryptamine 3 receptor was determined with NG-108-15 mouse neuroblastoma-glioma cells
5-hydroxytryptamine receptor 3A (Mus musculus), sequence (P23979 whole entry, looked up): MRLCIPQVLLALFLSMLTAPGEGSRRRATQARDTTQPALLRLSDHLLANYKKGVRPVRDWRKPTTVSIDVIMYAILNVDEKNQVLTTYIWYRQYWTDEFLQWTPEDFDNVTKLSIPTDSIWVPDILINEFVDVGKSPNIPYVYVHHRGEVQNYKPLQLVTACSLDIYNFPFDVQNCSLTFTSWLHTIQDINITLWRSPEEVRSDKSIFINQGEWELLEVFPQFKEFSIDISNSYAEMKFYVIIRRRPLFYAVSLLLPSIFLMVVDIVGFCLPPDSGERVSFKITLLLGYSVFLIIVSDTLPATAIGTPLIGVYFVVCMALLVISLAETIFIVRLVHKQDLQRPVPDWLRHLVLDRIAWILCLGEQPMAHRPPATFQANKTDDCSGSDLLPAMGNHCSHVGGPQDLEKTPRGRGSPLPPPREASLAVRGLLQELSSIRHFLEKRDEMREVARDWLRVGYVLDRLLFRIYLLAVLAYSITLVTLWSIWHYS

inhibition [2] [%] | Ki [3] [nM] | SMILES | Ki [1] [nM]
– | – | Cc1csc(CNC(=N)N)n1 | 116
– | – | Cc1nc[nH]c1Cc1nc(-c2c[nH]c3ccccc23)cs1 | 10
51 | 3.3 | N=C(N)NCc1nc(-c2c[nH]c3ccccc23)cs1 | –
– | – | N=C(N)NCc1ccccn1 | 82
43 | – | Cc1nccn1CC1CCc2c(c3ccccc3n2C)C1=O (stereo not drawn) | –
– | – | CN(Cc1nc(-c2c[nH]c3ccccc23)cs1)C(=N)N | > 1

SMILES | inhibition [2] [%] | Ki [3] [nM] | Ki [1] [nM]
COc1cc(N)c(Cl)cc1C(=O)NC1CN2CCC1CC2 (stereo not drawn) | 84 | – | –
